Experimental data published in patent US20090214529A9, “KINESIN INHIBITORS” (TaiGen Biotechnology Co., Ltd., priority 2007, published 2009).

These compounds were tested on tumor cell (assay: Cytotoxicity assay (MTS)). Conditions: 72 h; incubation for three days; read-out: IC50, tumor cell growth inhibition (MTS).
Assay type: cell-based
Description: The efficacy of a test compound in inhibiting tumor cell growth was analyzed using a MTS assay. The MTS assay is a calorimetric method for the determination of viable cells in proliferation by using a tetrazolium compound (3-(4,5-dimethylthiazol-2-yl)-5-(3-[…])-2-(4-sulfophenyl)-2H-tetrazolium, inner salt; MTS) and an electron-coupling agent (phenazine methosulfate; PMS). The MTS reagent is converted by dehydrogenase enzymes in metabolically active cells into a formazan that is soluble in a tissue culture medium.
In this assay, tumor cell suspensions (30 μl/well) were seeded into 384-well flat-bottomed tissue culture plates at an appropriate density overnight. A fresh medium (3 μl/well) containing varying concentrations of a test compound or vehicle was added to the culture followed by incubation for three days. At the end of the incubation, all plates were processed simultaneously as follows: The culture medium was aspirated, a MTS cell proliferation assay (Promega) solution (30 μl/well) was added, and the plates were incubated at 37° C. for about 2 hours. Absorbance (a parameter proportional to the cell mass) was measured at 490 nm using a Multiskan (Thermo Electron Corporation, Waltham, Mass.). Inhibition effects were expressed as corrected T/C values for each test compound according to the following equation:
T/C=(T−Blank)/(C−Blank)×100(%),
where T is the mean absorbance of the treated cells, C is the mean absorbance of the controls, and Blank is the mean absorbance of the cell free well.

Structure (SMILES) | IC50 [µM]
Cc1ccc(C(=O)N(CCN)C(c2nc3c(oc4ccc(Cl)cc43)c(=O)n2Cc2ccc(/C=C/O)s2)C(C)C)cc1 (stereo not shown) [Compound 134] | < 30
Cc1ccc(C(=O)N(CCN)C(c2nc3c(oc4ccc(Cl)cc43)c(=O)n2Cc2cccs2)C(C)C)cc1 (stereo not shown) [Compound 44] | < 30
Cc1ccc(C(=O)N(CCN)C(c2nc3c(oc4ccc(F)cc43)c(=O)n2Cc2ccc(C#N)o2)C(C)C)cc1 (stereo not shown) [Compound 111] | < 30
Cc1ccc(C(=O)N(CCN)C(c2nc3c(oc4ccc(Cl)cc43)c(=O)n2Cc2ccc(C#N)s2)C(C)C)cc1 (stereo not shown) [Compound 48] | < 30
Cc1ccc(C(=O)N(CCN)[C@@H](c2nc3c(oc4ccc(F)cc43)c(=O)n2Cc2ccsc2)C(C)C)cc1 [Compound 194] | < 30
CC(C)C(c1nc2c(oc3ccccc32)c(=O)n1Cc1ccccc1F)N(CCCN)C(=O)c1ccc(Br)cc1 (stereo not shown) [Compound 28] | < 30
Cc1ccc(C(=O)N(CCN)[C@@H](c2nc3c(oc4ccc(F)cc43)c(=O)n2Cc2cccc(F)c2)C(C)C)cc1F [Compound 188] | < 30
Cc1ccc(C(=O)N(CCCN)C(c2nc3c(oc4ccc(Cl)cc43)c(=O)n2Cc2cccc(F)c2)C(C)C)cc1 (stereo not shown) [Compound 97] | < 30
Cc1ccc(C(=O)N(CCN)[C@@H](c2nc3c(oc4ccc(F)cc43)c(=O)n2Cc2ccc(Br)s2)C(C)C)c(F)c1F [Compound 209] | < 30
Cc1ccc(C(=O)N(CCCN)C(c2nc3c(oc4ccc(F)cc43)c(=O)n2Cc2cc(Br)co2)C(C)C)cc1 (stereo not shown) [Compound 93] | < 30
Cc1ccc(C(=O)N(CCN)C(c2nc3c(oc4ccc(Cl)cc43)c(=O)n2Cc2ccsc2)C(C)C)cc1 (stereo not shown) [Compound 77] | < 30
CCC(c1nc2c(oc3ccccc32)c(=O)n1Cc1ccccc1)N(CCCN(C)C)C(=O)c1ccc(Br)cc1 (stereo not shown) [Compound 20] | < 30
Cc1ccc(C(=O)N(CCCN)C(c2nc3c(oc4ccc(Cl)cc43)c(=O)n2Cc2ccc(C#N)s2)C(C)C)cc1 (stereo not shown) [Compound 47] | < 30
Cc1ccc(C(=O)N(CCN)C(c2nc3c(oc4ccc(Cl)cc43)c(=O)n2Cc2ccco2)C(C)C)cc1 (stereo not shown) [Compound 125] | < 30
Cc1ccc(C(=O)N(CCCN)C(c2nc3c(oc4cc(Cl)ccc43)c(=O)n2Cc2ccccc2)C(C)C)cc1 (stereo not shown) [Compound 108] | < 30
Cc1ccc(C(=O)N(CCCN)C(c2nc3c(oc4ccc(F)cc43)c(=O)n2Cc2ccc(C#N)s2)C(C)C)cc1 (stereo not shown) [Compound 72] | < 30
Cc1ccc(C(=O)N(CCCN)C(c2nc3cc4[nH]c(Br)cc4cc3c(=O)n2Cc2cccs2)C(C)C)cc1 (stereo not shown) [Compound 1] | < 30
Cc1ccc(C(=O)N(CCN)[C@@H](c2nc3c(oc4ccc(F)cc43)c(=O)n2Cc2ccc(Cl)s2)C(C)C)cc1 [Compound 182] | < 30
Cc1ccc(C(=O)N(CCCN)C(c2nc3c(oc4ccc(Br)cc43)c(=O)n2Cc2ccccc2)C(C)C)cc1 (stereo not shown) [Compound 38] | < 30
CC(C)C(c1nc2n(c(=O)c1Cc1ccccc1)Cc1ccccc1-2)N(CCCN)C(=O)c1ccc(Br)cc1 (stereo not shown) [Compound 155] | < 30
CC(C)C(c1nc2c(oc3ccc(F)cc32)c(=O)n1Cc1ccc(Cl)s1)N(CCN)C(=O)c1ccc(Cl)cc1 (stereo not shown) [Compound 68] | < 30

Structure (SMILES) | IC50 [µM]
Cc1ccc(C(=O)N(CCN)C(c2nc3c(oc4ccccc43)c(=O)n2Cc2ccc(Br)o2)C(C)C)cc1 (stereo not shown) [Compound 165] | < 30
CC(C)[C@H](c1nc2c(oc3ccc(F)cc32)c(=O)n1Cc1ccc(Cl)o1)N(CCN)C(=O)c1ccc(Br)cc1 [Compound 204] | < 30
Cc1ccc(C(=O)N(CCN)C(c2nc3c(oc4ccc(F)cc43)c(=O)n2Cc2ccc(C(=O)NCC(F)F)s2)C(C)C)cc1 (stereo not shown) [Compound 120] | < 30
Cc1ccc(C(=O)N(CCCN)C(c2nc3c(sc4ccc(F)cc43)c(=O)n2Cc2ccccc2)C(C)C)cc1 (stereo not shown) [Compound 136] | < 30
Cc1ccc(C(=O)N(CCCN)C(c2nc3c(sc4ccccc43)c(=O)n2Cc2ccc(Cl)s2)C(C)C)cc1F (stereo not shown) [Compound 142] | < 30
Cc1ccc(C(=O)N(CCCN)C(c2nc3c(oc4ccc(Cl)cc43)c(=O)n2Cc2ccccc2)C(C)C)cc1 (stereo not shown) [Compound 35] | < 30
Cc1ccc(C(=O)N(CCN)C(c2nc3c(oc4ccc(F)cc43)c(=O)n2Cc2ccsc2)C(C)C)cc1 (stereo not shown) [Compound 75] | < 30
CC(C)[C@H](c1nc2c(oc3ccc(F)cc32)c(=O)n1Cc1cccc(F)c1)N(CCN)C(=O)c1ccc(Br)cc1 [Compound 203] | < 30
CCC(c1nc2c(oc3ccc(Cl)cc32)c(=O)n1Cc1ccccc1)N(CCCN)S(=O)(=O)c1ccc(C)cc1 (stereo not shown) [Compound 33] | < 30
CC(C)[C@H](c1nc2c(oc3ccc(F)cc32)c(=O)n1Cc1ccccc1)N(CCN)C(=O)c1ccc(Br)cc1 [Compound 205] | < 30
Cc1csc(Cn2c(C(C(C)C)N(CCN)C(=O)c3ccc(Cl)cc3)nc3c(oc4ccc(F)cc43)c2=O)c1 (stereo not shown) [Compound 166] | < 30
CCC(c1nc2c(oc3ccccc32)c(=O)n1Cc1ccccc1)N(CCCN(C)C)C(=O)c1ccc(C)cc1 (stereo not shown) [Compound 19] | < 30
Cc1ccc(C(=O)N(CCN)C(c2nc3c(oc4ccc(Cl)cc43)c(=O)n2Cc2cc(C)cs2)C(C)C)cc1 (stereo not shown) [Compound 94] | < 30
Cc1ccc(C(=O)N(CCCN)C(c2nc3c(sc4ccccc43)c(=O)n2Cc2ccccc2)C(C)C)cc1 (stereo not shown) [Compound 135] | < 30
Cc1ccc(C(=O)N(CCCN)C(c2nc3c(oc4ccc(F)cc43)c(=O)n2Cc2cc(Br)cs2)C(C)C)cc1 (stereo not shown) [Compound 73] | < 30
Cc1ccc(C(=O)N(CCCN)C(c2nc3c(sc4ccccc43)c(=O)n2Cc2ccc(Br)s2)C(C)C)cc1F (stereo not shown) [Compound 146] | < 30
Cc1ccc(C(=O)N(CCN)C(c2nc3c(oc4ccc(F)cc43)c(=O)n2Cc2cc(Br)co2)C(C)C)cc1 (stereo not shown) [Compound 92] | < 30
Cc1ccc(C(=O)N(CCN)C(c2nc3c(oc4cc(Cl)ccc43)c(=O)n2Cc2ccccc2)C(C)C)cc1 (stereo not shown) [Compound 107] | < 30
Cc1ccc(C(=O)N(CCN)[C@@H](c2nc3c(oc4ccc(F)cc43)c(=O)n2Cc2ccccc2)C(C)C)cc1 [Compound 191] | < 30
CCC(c1nc2c(oc3ccccc32)c(=O)n1Cc1ccccc1)N(CCN)C(=O)c1ccc(C)cc1 (stereo not shown) [Compound 21] | < 30
Cc1ccc(C(=O)N(CCN)C(c2nc3c(oc4ccc(Cl)cc43)c(=O)n2Cc2cc(Br)co2)C(C)C)cc1 (stereo not shown) [Compound 99] | < 30

Structure (SMILES) | IC50 [µM]
Cc1ccc(C(=O)N(CCN)[C@@H](c2nc3c(oc4ccc(F)cc43)c(=O)n2Cc2ccc(C(F)(F)F)o2)C(C)C)cc1F [Compound 214] | < 30
Cc1ccc(CN(CCCN)C(c2nc3cc4ccccc4cc3c(=O)n2Cc2ccccc2)C(C)C)cc1 (stereo not shown) [Compound 7] | < 30
Cc1ccc(C(=O)N(CCCN)C(c2nc3c(oc4ccc(Cl)cc43)c(=O)n2Cc2ccsc2)C(C)C)cc1 (stereo not shown) [Compound 78] | < 30
CCC(c1nc2c(oc3ccc(Cl)cc32)c(=O)n1Cc1ccccc1)N(CCCN)C(=O)c1ccc(C)cc1 (stereo not shown) [Compound 31] | < 30
Cc1ccc(C(=O)N(CCN)C(c2nc3c(oc4ccc(F)cc43)c(=O)n2Cc2cccc(Cl)c2)C(C)C)cc1 (stereo not shown) [Compound 122] | < 30
CCCC(c1nc2c(oc3ccccc32)c(=O)n1Cc1ccccc1)N(CC(O)CN)C(=O)c1ccc(C)cc1 (stereo not shown) [Compound 58] | < 30
Cc1ccc(C(=O)N(CCN)C(c2nc3c(oc4ccccc43)c(=O)n2Cc2cc(C)cs2)C(C)C)cc1 (stereo not shown) [Compound 161] | < 30
Cc1ccc(C(=O)N(CCN)[C@@H](c2nc3c(oc4ccc(F)cc43)c(=O)n2Cc2cc(C)cs2)C2CC2)cc1 [Compound 222] | < 30
CC(C)C(c1nc2c(sc3ccccc32)c(=O)n1Cc1ccc(Cl)s1)N(CCCN)C(=O)c1ccc(Br)cc1 (stereo not shown) [Compound 141] | < 30
Cc1ccc(C(=O)N(CCCN)C(c2nc3c(oc4ccccc43)c(=O)n2Cc2cccs2)C(C)C)cc1 (stereo not shown) [Compound 15] | < 30
Cc1ccc(C(=O)N(CCN)[C@@H](c2nc3c(oc4ccc(F)cc43)c(=O)n2Cc2ccco2)C(C)C)cc1 [Compound 185] | < 30
Cc1ccc(C(=O)N(CCN)[C@@H](c2nc3c(oc4ccc(F)cc43)c(=O)n2Cc2ccccc2)C(C)C)c(F)c1F [Compound 206] | < 30
CC(C)C(c1nc2c(oc3ccc(F)cc32)c(=O)n1Cc1ccccc1)N(CCN)C(=O)c1ccc(Cl)cc1 (stereo not shown) [Compound 64] | < 30
Cc1ccc(C(=O)N(CCN)[C@@H](c2nc3c(oc4ccc(F)cc43)c(=O)n2Cc2ccccc2)C(C)C)cc1F [Compound 192] | < 30
Cc1ccc(C(=O)N(CCCN)C(c2nc3c(oc4ccc(F)cc43)c(=O)n2Cc2ccsc2)C(C)C)cc1 (stereo not shown) [Compound 76] | < 30
Cc1ccc(C(=O)N(CCCN)C(c2nc3n(c(=O)c2Cc2ccccc2)Cc2ccccc2-3)C(C)C)c(F)c1F (stereo not shown) [Compound 154] | < 30
Cc1ccc(C(=O)N(CCN)C(c2nc3c(oc4ccc(F)cc43)c(=O)n2Cc2ccoc2)C(C)C)cc1 (stereo not shown) [Compound 128] | < 30
Cc1ccc(C(=O)N(CCCN)C(c2nc3c(oc4ccc(F)cc43)c(=O)n2Cc2ccc(Cl)o2)C(C)C)cc1 (stereo not shown) [Compound 91] | < 30
CCCC(c1nc2c(oc3ccccc32)c(=O)n1Cc1ccccc1)N(CCN)C(=O)c1ccc(C)cc1 (stereo not shown) [Compound 51] | < 30
